Source: patent publication US20210386829A1, “COMPOSITIONS AND METHODS FOR MODULATING CGRP SIGNALING TO REGULATE INNATE LYMPHOID CELL INFLAMMATORY RESPONSES” (The Broad Institute, Inc., priority 2018, published 2021)
“Also recorded” adds a separate entry of the source.

Key:
[1] = test system: lung ILCs; test: CellTrace Violet proliferation assay of sort-purified lung ILCs; assay type: cell-based, mouse; details: 3 days
Description: ILC in vitro culture. For in vitro experiments 5,000 ILCs/well were cultured in a 96 well round bottom plate with 20 ng/ml IL-7 (R&D Systems), 200 ng/ml IL-25 (R&D Systems) or 20 ng/ml, 2 ng/ml or 0.2 ng/ml IL-33 (BioLegend) with or without 1 μg/ml Neuromedin U (US Biological). In some cases purified CD90.2^+ lung cells were first labeled with CellTrace Violet (Thermo Fisher Scientific), then sorted as described above, and cultured for 3 days under the indicated conditions.
Proliferation assay. Lung cells were isolated and enriched for CD90.2 cells as described above, followed by labeling with CellTrace Violet (Cat #C34557; Thermo Fisher Scientific) according to manufacturer's instructions and subsequently stained with antibodies. After 3-day culture of sort-purified ILCs with 20 ng/ml IL-7 either alone or in combination with 200 ng/ml IL-33, 100 pM CGRP or 100 nM CGRP followed by staining, expression of CellTrace Violet in live (7AAD−) ILCs was analyzed on a BD LSRFortessa (BD Biosciences).

[2] = test system: inflammatory ILC2s (ST2-KLRG1+ ILCs; iILC2s); test: culture of sort-purified inflammatory ILC2s (iILC2s) with IL-33 or IL-25 with or without CGRP, qPCR; assay type: cell-based, mouse; details: IL-33 or IL-25 with vs without CGRP, 6 hours
Description: Isolation of lung cells for fluorescence-activated cell sorting. Mice were euthanized and perfused with 8 ml cold PBS via the right heart ventricle. Lung lobes were removed from the chest cavity and transferred into gentleMACS C tubes containing Buffer S and enzymes A and D from the lung dissociation kit (Cat #130-095-927; Miltenyi Biotec). After manual dissociation of the tissue by running program lung_01 of the automated tissue dissociator (gentleMACS; Miltenyi Biotec), and digestion at 37° C. for 25 min on a rotator, the tissue pieces were further dissociated by running program lung_02 of the automated tissue dissociator. Subsequently, the single-cell suspension was passed through a 70 um cell strainer and washed with DPBS (Cat #14190-144; Thermo Fisher Scientific) containing 0.5% bovine serum albumin (Cat #BP1600-1; Fisher Scientific) and 2 mM EDTA. After incubation of the cells with CD90.2 MicroBeads (Cat #130-049-101; Miltenyi Biotec) on ice for 17 min, cells were washed and transferred onto LS columns (Cat #130-042-401; Miltenyi Biotec) to enrich for CD90.2-positive cells by positive selection. […] Cells were purified by fluorescence-activated cell sorting using a BD FACS Aria IIIu flow cytometer with 3 lasers (405 nm, 488 nm, 640 nm) or 4 lasers (405 nm, 488 nm, 561 nm and 640 nm) (BD Biosciences). […]

“CGRP: neuropeptide calcitonin gene-related peptide (encoded by Calca), ligand of the Ramp1/Calcrl receptor; given at 100 nM in vitro, 6.65 ug nasally” was tested, and the “IL-33-activated ILCs that proliferated” value ([1]; IL-7+IL-33 in the presence of 100 nM CGRP) was “less than 10%”, the “IL-33-induced proliferation of ILCs” value ([1]; IL-33 with 100 pM or 100 nM CGRP vs IL-33 alone) was “inhibits IL-33-induced proliferation in a dose-dependent manner; also recorded: strongly inhibited” and the “Il5 and Il13 expression in iILC2s” value [2] was “no differences”.
